Experimental data as given in US9593305B2, “Differentiation of pluripotent stem cells” (Janssen Biotech, Inc., priority 2008, dated 2017).

Test system: H1 p49C3 cells
Test: Differentiation on microcarrier beads, cell number and CXCR4 by flow cytometry (Example 22)
Assay type: cell-based, human
Conditions: three days
Method: H1 p49C3 cells were routinely grown on Cytodex3 beads (GE Healthcare Life Sciences, NJ) in a 125 ml spinner flask, according to the methods described in U.S. Patent Application No. 61/116,447. After seven days, cells and beads were transferred to a 6 well plate at a ratio of 30 cm^2 bead surface area per well, and the plate was placed on a rocking platform. Cells on beads in the positive control treatment well (designated AA/Wnt3a) were differentiated with addition of 100 ng/ml activin A (PeproTech; Cat #120-14) and 20 ng/ml Wnt3a (R&D Systems; Cat #1324-WN/CF) for two days followed by 100 ng/ml activin A and 8 ng/ml bFGF (PeproTech Inc.; Cat #: 100-18B) for one day in RPMI-1640 (Invitrogen; Cat #: 22400) with 2% Fatty Acid Free BSA (MP Biomedicals, Inc; Cat #152401) using volumes of 2 ml/well. Compound 34, at a final concentration of 2.5 nM was added to a negative control treatment well (designated CMP alone (JNJ alone)) in RPMI-1640 with 2% Fatty Acid Free BSA (2 ml/well) for three days in the absence of any other growth factor treatment. […]
At the conclusion of treatment and culture, cells were harvested from the beads, according to the methods described in U.S. Patent Application No. 61/116,447. The harvested cells were counted and analyzed by flow cytometry, according to the methods described above. […]

O=C1CCN2CCN(CC2)Cc2cc(Cl)cc(c2)Nc2ncnc(n2)-c2cncc(c2)CCCN1 [Compound 34, 5-Chloro-1,8,10,12,16,22,26,32-octaazapentacyclo[24.2.2.1˜3.7˜0.1˜9,13˜0.1˜14.18˜]tritriaconta-3(33), 4,6,9(32), 10,12,14(31), 15,17-nonaen-23-one]
differentiation into CXCR4 positive cells (Compound 34 alone, no growth factor, Cytodex3 beads): did not differentiate into CXCR4 positive cells
CXCR4 expression, % of the cells, on average (Compound 34 with the various growth factor combinations including 50 ng/ml GDF-8, Cytodex3 beads): 50%
